The target of the experiment is T1, hTRPV3 (Homo sapiens, UniProt Q8NET8).
T1 construct: expressed in transfected cells; host or cells: HEK-293
T1 sequence (Q8NET8 1-790): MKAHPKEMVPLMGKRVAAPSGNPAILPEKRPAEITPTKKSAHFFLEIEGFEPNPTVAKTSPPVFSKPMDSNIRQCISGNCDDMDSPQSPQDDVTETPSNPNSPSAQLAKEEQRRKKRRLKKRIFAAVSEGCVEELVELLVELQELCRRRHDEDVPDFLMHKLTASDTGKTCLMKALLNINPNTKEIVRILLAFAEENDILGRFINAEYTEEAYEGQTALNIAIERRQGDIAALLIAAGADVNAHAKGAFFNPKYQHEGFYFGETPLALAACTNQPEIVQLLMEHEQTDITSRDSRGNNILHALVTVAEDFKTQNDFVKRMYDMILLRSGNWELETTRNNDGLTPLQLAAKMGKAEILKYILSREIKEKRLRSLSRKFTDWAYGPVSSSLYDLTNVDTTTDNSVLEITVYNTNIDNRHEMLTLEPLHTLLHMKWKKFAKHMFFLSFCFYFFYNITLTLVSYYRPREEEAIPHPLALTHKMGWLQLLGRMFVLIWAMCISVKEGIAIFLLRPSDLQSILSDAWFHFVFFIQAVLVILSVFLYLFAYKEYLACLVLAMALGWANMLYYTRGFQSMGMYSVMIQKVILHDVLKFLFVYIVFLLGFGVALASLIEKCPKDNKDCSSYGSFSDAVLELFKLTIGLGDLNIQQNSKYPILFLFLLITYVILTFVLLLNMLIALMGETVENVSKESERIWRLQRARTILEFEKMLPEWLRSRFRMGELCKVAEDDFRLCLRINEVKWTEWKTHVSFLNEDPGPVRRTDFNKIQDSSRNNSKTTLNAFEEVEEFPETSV
Kind of experiment: Whole cell patch clamp inhibition rate test on HEK-293 cells instantaneously expressing TRPV3. In kind it is cell-based. To be noted: HEK293; hTRPV3, single concentration 0.3 μM. How it is done: In this study, HEK-293 cells instantaneously expressing TRPV3 were used for experimental detection.
The operation steps are as follows:
The cells were cultured in DMEM medium containing 10% fetal bovine serum at a temperature of 37° C. and a carbon dioxide concentration of 5%.
Day 1: Cells were inoculated into a 6-well plate with 5×10^5 cells per well.
Day 2: Transfection was performed using Lipofectamine 3000 transfection reagent, with a plasmid to transfection reagent ratio of 1 μg: 2 μL. The total amount of plasmid used per well was 3 μg. Specifically, two sterile centrifuge tubes were taken and 100 μL Opti-MEM was added to each tube. 6 μL Lipofectamine 3000 was added to one tube and mixed well; and 3 μg plasmid was added to another tube and mixed well, and then 6 μL P3000 was added and mixed well; Subsequently, the diluted plasmid DNA was added to diluted Lipofectamine 3000 and incubated at room temperature for 10-15 min. DNA liposome complex was dropped into the cells, shaked gently and mixed well, and then cultured in an incubator. The liquid was changed after 4 to 6 h.
Day 3: The cells were digested and seeded into 24 well plates with pre-placed cover slides, with 8×10^3 cells per well.
Day 4: Patch clamp testing was performed.
The voltage stimulation protocol for recording TRPV3 current using whole cell patch clamp is as follows: after forming a whole cell seal, a cell membrane voltage clamp was set at −80 mV. Firstly, a membrane potential was recorded at 0 mV, and then a voltage was command to start from −100 mV, to depolarize in the form of Ramp to 100 mV within 100 ms, and finally restore to 0 mV. Data collection was repeated every 5 seconds to observe the inhibitory effect of pharmaceutical on peak current. Experimental data was collected by EPC 10 amplifier (HEKA) and stored in PatchMaster (HEKA) software.
A microelectrode puller was used to pull the capillary glass tube into a recording electrode. The electrode filled with intracellular fluid was inserted into a microelectrode holder, and a microelectrode manipulator was operated under an inverted microscope to immerse the electrode in extracellular fluid and an electrode resistance (Rpip) was recorded. The electrode was brought into contact with the cell surface and a negative pressure suction was applied to form a high resistance seal (GΩ). At this point, a fast capacitance compensation was performed, and negative pressure was continued to apply in order to break the cell membrane, so that a whole cell recording mode was formed. Then, a slow capacitance compensation was performed and experimental parameters such as film capacitance (Cm) and series resistance (Rs) were recorded. No leakage compensation was provided.
When the TRPV3 current recorded by the whole cell had stabilized, administration was started. Each pharmaceutical concentration acted for 5 minutes (or until the current stabilized) before detecting the next concentration. A plurality of concentrations was tested for each test compound. A cover glass covered with cells was placed in a recording bath under an inverted microscope. A blank control extracellular solution and a working fluid for the compound to be tested sequentially flowed through the recording bath from low concentration to high concentration using gravity perfusion to act on the cells. Liquid exchange was performed using a peristaltic pump during recording. The current detected by each cell in the extracellular fluid without the compound served as its own control group. Each concentration was independently tested twice using at least two cells. All electrophysiological tests were conducted at room temperature.
On the technique in general: In patch-clamp work, channel activity is measured electrically.

A value given as a limit tells only on which side of the number the result lay.

One may read the inhibition as the relative decrease from the control value, in per cent. A higher inhibition goes with a strong effect. On to `CC(C)c1ccccc1-c1ccc2c(c1)C(O)CC21CCN(Cc2ccc(F)cn2)C1` (stereo not shown) [Example 134, 1′-((5-fluoropyridin-2-yl)methyl)-5-(2-isopropylphenyl)-2,3-dihydrospiro[indene-1,3′-pyrrolidine]-3-ol], for which the inhibition at 0.3 µM is < 25%.

In the case of `O=C(c1ccc(F)cn1)N1CCC2(CC(O)c3cc(-c4ccc(F)cc4C4CC4)ccc32)C1` (stereo not shown) [Example 163, (5-(2-cyclopropyl-4-fluorophenyl)-3-hydroxy-2,3-dihydrospiro[indene-1,3′-pyrrolidine]-1′-yl)(5-fluoropyridin-2-yl) ketone], the inhibition at 0.3 µM lay in the range of 70 to 100%.

Take `CC(C)c1ccccc1Oc1ccc2c(c1)C(O)CC21CCN(C(=O)c2ccc(F)cn2)C1` (stereo not shown) [Example 104, (5-fluoropyridin-2-yl)(3-hydroxy-5-(2-isopropylphenyloxy)-2,3-dihydrospiro[indene-1,3′-pyrrolidine]-1′-yl) ketone]: the inhibition at 0.3 µM lay within 70 to 100%.

In the case of `CC(=O)c1cc(F)ccc1-c1ccc2c(c1)C(O)CC21CCN(C(=O)c2ccc(F)cn2)C1` (stereo not shown) [Example 95, 1-(5-fluoro-2-(1′-(5-fluoropyridoyl)-3-hydroxy-2,3-dihydrospiro[indene-1,3′-pyrrolidine]-5-yl)phenyl)ethan-1-one], the inhibition at 0.3 µM lay within 70 to 100%.

With `O=C(c1csc(Cl)n1)N1CC[C@]2(C[C@@H](O)c3cc(-c4ccccc4C4CC4)ccc32)C1` [Example 30, (2-chlorothiazol-4-yl)((1R,3R)-5-(2-cyclopropylphenyl)-3-hydroxy-2,3-dihydrospiro[indene-1,3′-pyrrolidine]-1′-yl)ketone], the inhibition at 0.3 µM is < 25%.

The molecule `CCOc1ccccc1-c1ccc2c(c1)C(O)CC21CCN(C(=O)c2ccc(F)cn2)C1` (stereo not shown) [Example 86, (5-(2-ethoxyphenyl)-3-hydroxy-2,3-dihydrospiro[indene-1,3′-pyrrolidine]-1′-yl)(5-fluoropyridin-2-yl) ketone] yielded an inhibition at 0.3 µM of 50 to 70%.

On to `CC(C)c1ccccc1-c1ccc2c(c1)[C@@H](O)C[C@@]21CCN(C(=O)c2ccc(F)cn2)C1` [Example 28], for which the inhibition at 0.3 µM was < 25%.

`O=C(c1csc(Cl)n1)N1CC[C@@]2(C[C@@H](O)c3cc(-c4ccccc4C4CC4)ccc32)C1` [Example 29, (2-chlorothiazol-4-yl)((1S,3R)-5-(2-cyclopropylphenyl)-3-hydroxy-2,3-dihydrospiro[indene-1,3′-pyrrolidine]-1′-yl)ketone] yielded an inhibition at 0.3 µM of 70 to 100%.

Molecule `CNc1cncc(C(=O)N2CCC3(CC(O)c4cc(-c5ccccc5C5CC5)ccc43)C2)n1` (stereo not shown) [Example 48, (5-(2-cyclopropylphenyl)-3-hydroxy-2,3-dihydrospiro[indene-1,3′-pyrrolidine]-1′-yl)(6-(methylamino)pyrazin-2-yl) ketone] showed an inhibition at 0.3 µM of 70 to 100%.

For the molecule `O=C(c1ccc(F)cn1)N1CCC2(CC(O)c3cc(-c4cc(F)ccc4C4CC4)ccc32)C1` (stereo not shown) [Example 83, (5-(2-cyclopropyl-5-fluorophenyl)-3-hydroxy-2,3-dihydrospiro[indene-1,3′-pyrrolidine]-1′-yl)(5-fluoropyridin-2-yl) ketone], the inhibition at 0.3 µM fell in the range of 70 to 100%.

`O=C(c1ccc(Cl)cn1)N1CCC2(CC(O)c3cc(-c4ccccc4C4CC4)ccc32)C1` (stereo not shown) [Example 14, (5-chloropyridin-2-yl)(5-(2-cyclopropylphenyl)-3-hydroxy-2,3-dihydrospiro[indene-1,3′-pyrrolidine]-1′-yl) ketone] yielded an inhibition at 0.3 µM of 70 to 100%.

For `Cc1cnc(C(=O)N2CCC3(CC(O)c4cc(-c5ccccc5C(C)C)ccc43)C2)cn1` (stereo not shown) [Example 65, (3-hydroxy-5-(2-isopropylphenyl)-2,3-dihydrospiro[indene-1,3′-pyrrolidine]-1′-yl)(5-methylpyrazin-2-yl)ketone], the inhibition at 0.3 µM is 70 to 100%.

In the case of `O=C(c1ccc(F)cn1)N1CCC2(CCC(O)c3cc(-c4ccccc4C4CC4)ccc32)C1` (stereo not shown) [Example 1, (6-(2-Cyclopropylphenyl)-4-hydroxy-3,4-dihydro-2H-spiro[naphthalene-1,3′-pyrrolidine]-1′-yl) (5-fluoropyridin-2-yl) ketone], the inhibition at 0.3 µM is < 25%.

On to `CC(C)c1ccccc1-c1ccc2c(c1)CCC21CCN(C(=O)c2ccc(F)cn2)C1` (stereo not shown) [Example 120, (5-fluoropyridin-2-yl)(5-(2-isopropylphenyl)-2,3-dihydrospiro[indene-1,3′-pyrrolidine]-1′-yl) ketone], for which the inhibition at 0.3 µM was < 25%.

For `O=C(c1cccc(C2CC2)n1)N1CCC2(CC(O)c3cc(-c4ccccc4C4CC4)ccc32)C1` (stereo not shown) [Example 19, (5-(2-cyclopropylphenyl)-3-hydroxy-2,3-dihydrospiro[indene-1,3′-pyrrolidine]-1′-yl)(6-cyclopropylpyridin-2-yl) ketone], the inhibition at 0.3 µM was in the range of 70 to 100%.

As for `CC(C)c1ccccc1-c1ccc2c(c1)C(CO)CC21CCN(C(=O)c2ccc(F)cn2)C1` (stereo not shown) [Example 126, (5-fluoropyridin-2-yl)(3-(methylol)-5-(2-isopropylphenyl)-2,3-dihydrospiro[indene-1,3′-pyrrolidine]-1′-yl) ketone], the inhibition at 0.3 µM is 70 to 100%.

For `O=C(c1ccc(F)cn1)N1CCC2(C1)OB(O)c1cc(-c3ccccc3C3CC3)ccc12` (stereo not shown) [Example 9, (6-(2-cyclopropylphenyl)-1-hydroxy-1H-spiro[benzo[c][1,2]oxaborolane-3,3′-pyrrolidine]-1′-yl)(5-fluoropyridin-2-yl) ketone], the inhibition at 0.3 µM was in the range of 25 to 50%.

In the case of `CC(C)c1ccccc1-c1ccc2c(c1)C(O)CC21CCN(C(=O)c2ccncn2)C1` (stereo not shown) [Example 67, (3-hydroxy-5-(2-isopropylphenyl)-2,3-dihydrospiro[indene-1,3′-pyrrolidine]-1′-yl)(pyrimidin-4-yl)ketone], the inhibition at 0.3 µM lay within 50 to 70%.

In turn, `CC(C)c1ccccc1-c1ccc2c(c1)C(O)CC21CCN(C(=O)c2ccc3cn[nH]c3n2)C1` (stereo not shown) [Example 75, (3-hydroxy-5-(2-isopropylphenyl)-2,3-dihydrospiro[indene-1,3′-pyrrolidine]-1′-yl)(1Hpyrazolo[3,4-b]pyridin-6-yl) ketone] gave an inhibition at 0.3 µM of 25 to 50%.

For the molecule `CC(C)c1ccccc1-c1ccc2c(c1)C1(CCN(C(=O)c3ccc(F)cn3)C1)CC2O` (stereo not shown) [Example 103, (5-fluoropyridin-2-yl)(3-hydroxy-6-(2-isopropylphenyl)-2,3-dihydrospiro[indene-1,3′-pyrrolidine]-1′-yl) ketone], the inhibition at 0.3 µM is < 25%.

Turning to `CC(C)c1ccccc1-c1ccc2c(c1)C(O)CC21CCN(C(=O)c2cc[nH]n2)C1` (stereo not shown) [Example 71, (3-hydroxy-5-(2-isopropylphenyl)-2,3-dihydrospiro[indene-1,3′-pyrrolidine]-1′-yl)(1H-pyrazol-3-yl)ketone], the inhibition at 0.3 µM was 50 to 70%.

Turning to `O=C(c1cccc(C2CC2)n1)N1CC[C@]2(C[C@@H](O)c3cc(-c4ccccc4C4CC4)ccc32)C1` [Example 38, ((1R,3R)-5-(2-cyclopropylphenyl)-3-hydroxy-2,3-dihydrospiro[indene-1,3′-pyrrolidine]-1′-yl)(6-cyclopropylpyridin-2-yl) ketone], the inhibition at 0.3 µM was < 25%.
